# Assay results published in PubChem BioAssay AID248 (DTP/NCI, 2004).
# Toxic doses and inconclusive results are not listed.
# Tested on: L1210 leukemia ip in BDF1 mice, survival T/C
# Experiment: NCI In Vivo Anticancer Drug Screen. Data for tumor model L1210 Leukemia (intraperitoneal) in B6D2F1 (BDF1) mice
# Settings: endpoint: mean survival time, higher = longer survival
# Summary of the method: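 Transplanted-tumor mice were given test agent; controls received vehicle only. Survival readings from the two groups were divided (treated over control).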
# [1] = dose: 12.5 mg/kg/injection, schedule: Q04DX003 (ip), vehicle: saline
# [2] = dose: 25.0 mg/kg/injection, schedule: Q01DX009 (ip), vehicle: saline
# [3] = dose: 25.0 mg/kg/injection, schedule: Q04DX003 (ip), vehicle: saline
# [4] = dose: 50.0 mg/kg/injection, schedule: Q01DX001 (ip), vehicle: saline
# [5] = dose: 50.0 mg/kg/injection, schedule: Q01DX009 (ip), vehicle: saline
# [6] = dose: 50.0 mg/kg/injection, schedule: Q04DX003 (ip), vehicle: saline
# [7] = dose: 100.0 mg/kg/injection, schedule: Q01DX001 (ip), vehicle: carboxymethylcellulose (CMC)
# [8] = dose: 200.0 mg/kg/injection, schedule: Q01DX001 (ip), vehicle: carboxymethylcellulose (CMC)
# [9] = dose: 400.0 mg/kg/injection, schedule: Q01DX001 (ip), vehicle: carboxymethylcellulose (CMC)
# [10] = dose: 100.0 mg/kg/injection, schedule: Q01DX009 (ip), vehicle: Klucel (hydroxypropylcellulose) (HPC)
# [11] = dose: 200.0 mg/kg/injection, schedule: Q01DX009 (ip), vehicle: Klucel (hydroxypropylcellulose) (HPC)
# [12] = dose: 400.0 mg/kg/injection, schedule: Q01DX009 (ip), vehicle: Klucel (hydroxypropylcellulose) (HPC)
# [13] = dose: 100.0 mg/kg/injection, schedule: Q04DX003 (ip), vehicle: Klucel (hydroxypropylcellulose) (HPC)
# [14] = dose: 200.0 mg/kg/injection, schedule: Q04DX003 (ip), vehicle: Klucel (hydroxypropylcellulose) (HPC)
# [15] = dose: 400.0 mg/kg/injection, schedule: Q04DX003 (ip), vehicle: Klucel (hydroxypropylcellulose) (HPC)
# [16] = dose: 100.0 mg/kg/injection, schedule: Q01DX001 (ip), vehicle: saline
# [17] = dose: 200.0 mg/kg/injection, schedule: Q01DX001 (ip), vehicle: saline
# [18] = dose: 400.0 mg/kg/injection, schedule: Q01DX001 (ip), vehicle: saline
# [19] = dose: 100.0 mg/kg/injection, schedule: Q04DX002 (ip), vehicle: Klucel (hydroxypropylcellulose) (HPC)
# [20] = dose: 200.0 mg/kg/injection, schedule: Q04DX002 (ip), vehicle: Klucel (hydroxypropylcellulose) (HPC)
# [21] = dose: 400.0 mg/kg/injection, schedule: Q04DX002 (ip), vehicle: Klucel (hydroxypropylcellulose) (HPC)
# [22] = dose: 100.0 mg/kg/injection, schedule: Q04DX003 (ip), vehicle: saline with Tween-80
smiles,measurement,setting,value
CCOc1ccc(NC(=O)C(C(C)N2CCCCC2)N2CCCCC2)cc1 (configuration not stated),T/C,"dose: 12.5 mg/kg/injection, schedule: Q01DX001 (ip), vehicle: saline",94 % of control
same,T/C,"dose: 12.5 mg/kg/injection, schedule: Q01DX009 (ip), vehicle: saline",95 % of control
same,T/C,[1],97 % of control
same,T/C,"dose: 25.0 mg/kg/injection, schedule: Q01DX001 (ip), vehicle: saline",95 % of control
same,T/C,[2],92 % of control
same,T/C,[3],95 % of control
same,T/C,[4],90 % of control
same,T/C,[5],91 % of control
same,T/C,[6],92 % of control
CS(=O)(=O)Oc1c(Cl)cc(Cl)c2cccnc12,T/C,[7],102 % of control
same,T/C,[8],102 % of control
same,T/C,[9],111 % of control
Cc1cccc(OCCOC(=O)Nc2ccccc2F)c1,T/C,[10],103 % of control
same,T/C,[11],93 % of control
same,T/C,[12],106 % of control
CCOC(=O)c1cnn(-c2ccccc2)c1N,T/C,[2],104 % of control
same,T/C,[5],108 % of control
same,T/C,[10],98 % of control
same,T/C,"dose: 100.0 mg/kg/injection, schedule: Q01DX009 (ip), vehicle: saline",105 % of control
same,T/C,[13],96 % of control
same,T/C,[11],100 % of control
same,T/C,[14],100 % of control
same,T/C,[12],102 % of control
same,T/C,[15],100 % of control
COc1ccc(N=C(C(=Nc2ccc(OC)cc2)c2ccccc2)c2ccccc2)cc1,T/C,[10],94 % of control
same,T/C,[13],96 % of control
same,T/C,[11],95 % of control
same,T/C,[14],95 % of control
same,T/C,[12],100 % of control
same,T/C,[15],95 % of control
O=C(CCCC(=O)NNC(=S)Nc1ccccc1Cl)NNC(=S)Nc1ccccc1Cl,T/C,[4],96 % of control
same,T/C,[16],96 % of control
same,T/C,[17],93 % of control
same,T/C,[18],93 % of control
O=[N+]([O-])c1cccc(C=Nc2cccc(Cl)c2)c1,T/C,[19],96 % of control
same,T/C,[20],100 % of control
same,T/C,[21],100 % of control
O=C(CNC(=O)c1ccc(Cl)cc1Cl)N/N=C/c1cccc([N+](=O)[O-])c1,T/C,"dose: 12.5 mg/kg/injection, schedule: Q01DX009 (ip), vehicle: saline with Tween-80",96 % of control
same,T/C,"dose: 50.0 mg/kg/injection, schedule: Q01DX009 (ip), vehicle: saline with Tween-80",89 % of control
CCN(N=O)c1ccc(/C=C2/C=Cc3ccccc32)cc1,T/C,[7],95 % of control
same,T/C,[8],90 % of control
same,T/C,[9],101 % of control
CCOC(=O)c1cccc2c([N+](=O)[O-])cccc12,T/C,[16],94 % of control
same,T/C,"dose: 100.0 mg/kg/injection, schedule: Q01DX009 (ip), vehicle: acetone",96 % of control
same,T/C,[17],98 % of control
same,T/C,"dose: 200.0 mg/kg/injection, schedule: Q01DX009 (ip), vehicle: acetone",88 % of control
same,T/C,[18],98 % of control
same,T/C,"dose: 400.0 mg/kg/injection, schedule: Q01DX009 (ip), vehicle: acetone",97 % of control
Cc1ccc(S(=O)(=O)N(Cc2cccc([N+](=O)[O-])c2)c2ccc(C(=O)O)cc2)cc1,T/C,[19],91 % of control
same,T/C,[20],98 % of control
same,T/C,[21],102 % of control
CSc1nc2ccc([N+](=O)[O-])cc2s1,T/C,[19],93 % of control
same,T/C,[20],97 % of control
same,T/C,[21],101 % of control
CCOC(=O)c1ccc(C(=O)OCC)c(Cl)n1,T/C,[10],97 % of control
same,T/C,[13],105 % of control
same,T/C,[11],95 % of control
same,T/C,[14],97 % of control
same,T/C,[12],97 % of control
same,T/C,[15],102 % of control
O=C1OC(c2ccc(Cl)cc2)Sc2ccccc21 (configuration not stated),T/C,[22],103 % of control
same,T/C,"dose: 200.0 mg/kg/injection, schedule: Q04DX003 (ip), vehicle: saline with Tween-80",94 % of control
same,T/C,"dose: 400.0 mg/kg/injection, schedule: Q04DX003 (ip), vehicle: saline with Tween-80",100 % of control
COc1cccc(CNc2cccc([N+](=O)[O-])c2)c1OC,T/C,[10],95 % of control
same,T/C,[13],102 % of control
same,T/C,[11],97 % of control
same,T/C,[14],96 % of control
same,T/C,[12],95 % of control
same,T/C,[15],95 % of control
CC(CC(CCC(=O)O)(c1ccccc1)c1ccccc1)N(C)C (configuration not stated),T/C,[7],105 % of control
same,T/C,[8],97 % of control
O=NN(CCF)C(=O)Nc1ccccc1,T/C,"dose: 18.0 mg/kg/injection, schedule: Q01DX001 (ip), vehicle: other",160 % of control
CCC(Cl)COP(=O)(OCC(Cl)CC)C(c1ccc(Cl)c(Cl)c1)P(=O)(OCC(Cl)CC)OCC(Cl)CC (configuration not stated),T/C,[13],101 % of control
same,T/C,[14],98 % of control
same,T/C,[15],96 % of control
CCS(=O)(=O)CCN1C(=O)C2C3CCC(O3)C2C1=O (configuration not stated),T/C,[19],98 % of control
same,T/C,[20],95 % of control
same,T/C,[21],117 % of control
Nc1ccccc1CC(C(=O)O)c1ccc2c(c1)OCO2 (configuration not stated),T/C,"dose: 75.0 mg/kg/injection, schedule: Q01DX001 (ip), vehicle: saline",105 % of control
same,T/C,"dose: 75.0 mg/kg/injection, schedule: Q01DX009 (ip), vehicle: acetone",108 % of control
same,T/C,"dose: 150.0 mg/kg/injection, schedule: Q01DX001 (ip), vehicle: saline",94 % of control
same,T/C,"dose: 150.0 mg/kg/injection, schedule: Q01DX009 (ip), vehicle: acetone",103 % of control
same,T/C,"dose: 300.0 mg/kg/injection, schedule: Q01DX001 (ip), vehicle: saline",89 % of control
same,T/C,"dose: 300.0 mg/kg/injection, schedule: Q01DX009 (ip), vehicle: acetone",103 % of control
[Cl][Ni][Cl].[NH-]CCN1CC1.[NH-]CCN1CC1,T/C,"dose: 1.75 mg/kg/injection, schedule: Q01DX009 (ip), vehicle: saline",101 % of control
same,T/C,"dose: 3.5 mg/kg/injection, schedule: Q01DX009 (ip), vehicle: saline",97 % of control
same,T/C,"dose: 7.0 mg/kg/injection, schedule: Q01DX009 (ip), vehicle: saline",103 % of control
same,T/C,"dose: 14.0 mg/kg/injection, schedule: Q01DX009 (ip), vehicle: saline",98 % of control
CCC(N)C(O)C(Cl)(Cl)Cl (configuration not stated),T/C,"dose: 100.0 mg/kg/injection, schedule: Q01DX009 (ip), vehicle: saline with Tween-80",103 % of control
same,T/C,[22],89 % of control
same,T/C,"dose: 200.0 mg/kg/injection, schedule: Q01DX009 (ip), vehicle: saline with Tween-80",98 % of control
same,T/C,"dose: 400.0 mg/kg/injection, schedule: Q01DX009 (ip), vehicle: saline with Tween-80",109 % of control
O=c1[nH][nH]c(=O)c2c1nc(SCc1ccccc1Br)n2Cc1ccccc1,T/C,[7],95 % of control
same,T/C,[8],97 % of control
same,T/C,[9],97 % of control
CCOP(=O)(OCC)C(c1ccccc1)(c1ccccc1)c1ccccc1,T/C,"dose: 100.0 mg/kg/injection, schedule: Q04DX002 (ip), vehicle: saline with Tween-80",90 % of control
same,T/C,"dose: 200.0 mg/kg/injection, schedule: Q04DX002 (ip), vehicle: saline with Tween-80",90 % of control
same,T/C,"dose: 400.0 mg/kg/injection, schedule: Q04DX002 (ip), vehicle: saline with Tween-80",90 % of control
CCOC(=O)C(c1cccc(OC)c1)C1(C(=O)OCC)CC2(CCC1=O)OCCO2 (configuration not stated),T/C,[10],93 % of control
same,T/C,[11],95 % of control
same,T/C,[12],88 % of control
O=C(OC1C2C=CC1C1C(=O)NC21)c1ccccc1 (configuration not stated),T/C,"dose: 75.0 mg/kg/injection, schedule: Q01DX001 (ip), vehicle: carboxymethylcellulose (CMC)",97 % of control
same,T/C,"dose: 150.0 mg/kg/injection, schedule: Q01DX001 (ip), vehicle: carboxymethylcellulose (CMC)",102 % of control
same,T/C,"dose: 300.0 mg/kg/injection, schedule: Q01DX001 (ip), vehicle: carboxymethylcellulose (CMC)",113 % of control
CCCCCCCCCCCCCCCC(CCCCCCCC)CCCCCCCC,T/C,"dose: 75.0 mg/kg/injection, schedule: Q01DX001 (ip), vehicle: saline with Tween-80",97 % of control
same,T/C,"dose: 150.0 mg/kg/injection, schedule: Q01DX001 (ip), vehicle: saline with Tween-80",110 % of control
same,T/C,"dose: 300.0 mg/kg/injection, schedule: Q01DX001 (ip), vehicle: saline with Tween-80",95 % of control
CCOC(=O)N1CCN(Cn2cc3c4c(cccc42)C2CC(C(=O)NC(C)C)CN(C)C2C3)CC1 (configuration not stated),T/C,"dose: 6.25 mg/kg/injection, schedule: Q04DX003 (ip), vehicle: saline",88 % of control
same,T/C,[1],97 % of control
same,T/C,[3],100 % of control
same,T/C,[6],94 % of control
same,T/C,"dose: 100.0 mg/kg/injection, schedule: Q04DX003 (ip), vehicle: saline",97 % of control
